From patent US7626030B2, “Compounds and methods of use” (Amgen Inc., priority 2004, dated 2009)

What was measured:
c-Met in PC3 cells = target: T1, c-Met in PC3 cells (Homo sapiens, UniProt P08581); assay: c-Met cell-based autophosphorylation assay, PC3 cells; details: HGF-stimulated
T1 construct: host or cells: PC3 cells
Method: c-Met Cell-Based Autophosphorylation Assay
Human PC3 and mouse CT26 cells are available obtained from ATCC. The cells were cultured in a growth medium containing RPMI 1640, penicillin/streptomycin/glutamine (1×) and 5% FBS. 2×10^4 cells in medium were plated per well in a 96 well plate and incubated at 37° C. overnight. The cells were serum-starved by replacing the growth media with basic medium (DMEM low glucose+0.1 BSA, 120 μL per well) at 37° C. for 16 h. Compounds (either 1 mM and 0.2 mM) in 100% DMSO were serially diluted (1:3) 3333 fold on a 96 well plate, diluting 1:3 with DMSO from column 1 to 11 (columns 6 and 12 receive no compound). Compound samples (2.4 μL per well) were diluted with basic medium (240 μL) in a 96 well plate. The cells were washed once with basic medium (GIBCO, DMEM 11885-076) then compound solution was added (100 μL). The cells were incubated at 37° C. for 1 h. A (2 mg/mL) solution of CHO-HGF (7.5 μL) was diluted with 30 mL basic medium to provide a final concentration of 500 ng/mL. This HGF-containing media (120 μL) was transferred to a 96 well plate. Compounds (1.2 μL) was added to the HGF-containing media and mixed well. The mixture of media/HGF/compound (100 μL) was added to the cells (final HGF concentration—250 ng/mL) then incubated at 37° C. for 10 min. A cell lysate buffer (20 mL) was prepared containing 1% Triton X-100, 50 mM Tris pH 8.0, 100 mM NaCl, Protease inhibitor (Sigma, #P-8340) 200 μL, Roche Protease inhibitor (Complete, # 1-697-498) 2 tablets, Phosphatase Inhibitor II (Sigma, #P-5726) 200 μL, and a sodium vanadate solution (containing 900 μL PBS, 100 μL 300 mM NaVO3, 6 μl H2O2 (30% stock) and stirred at RT for 15 min) (90 μL). The cells were washed once with ice cold 1×PBS (GIBCO, #14190-136), then lysis buffer (60 μL) was added and the cells were incubated on ice for 20 min.
The IGEN assay was performed as follows: Dynabeads M-280 streptavidin beads were pre-incubated with biotinylated anti-human HGFR (240 μL anti-human-HGFR (R&D system, BAF527 or BAF328) @ 100 μg/mL+360 μL Beads (IGEN #10029+5.4 μL buffer−PBS/1% BSA/0.1% Tween20) by rotating for 30 min at RT. Antibody beads (25 μL) were transferred to a 96 well plate. Cell lysate solution (25 μL) was transferred added and the plate was shaken at RT for 1 h. Anti-phosphotyrosine 4G10 (Upstate 05-321) (19.7 μL antibody+6 mL 1×PBS) (12.5 μL) was added to each well, then incubated for 1 h at RT. Anti-mouse IgG ORI-Tag (ORIGEN #110087) (24 μL Antibody+6 mL buffer) (12.5 μL) was added to each well, then incubated at RT for 30 min. 1×PBS (175 μL) was added to each well and the electrochemiluminescence was read by an IGEN M8. Raw data was analyzed using a 4-parameter fit equation in XLFit. IC50 values are then determined using Grafit software.

[1] = tested on: Human Umbilical Vein Endothelial cells; assay: HUVEC proliferation assay (VEGF-stimulated); type: cell-based; details: read-out: inhibition of VEGF-stimulated HUVEC proliferation, level
Method: HUVEC Proliferation Assay
Human Umbilical Vein Endothelial cells are purchased from Clonetics, Inc., as cryopreserved cells harvested from a pool of donors. These cells, at passage 1, are thawed and expanded in EBM-2 complete medium, until passage 2 or 3. The cells are trypsinized, washed in DMEM+10% FBS+antibiotics, and spun at 1000 rpm for 10 min. Prior to centrifugation of the cells, a small amount is collected for a cell count. After centrifugation, the medium is discarded, and the cells are resuspended in the appropriate volume of DMEM+10% FBS+antibiotics to achieve a concentration of 3×10^5 cells/mL. Another cell count is performed to confirm the cell concentration. The cells are diluted to 3×10^4 cells/mL in DMEM+10% FBS+antibiotics, and 100 μL of cells are added to a 96-well plate. The cells are incubated at 37° C. for 22 h.
Prior to the completion of the incubation period, compound dilutions are prepared. Five-point, five-fold serial dilutions are prepared in DMSO, at concentrations 400-fold greater than the final concentrations desired. 2.5 μL of each compound dilution are diluted further in a total of 1 mL DMEM+10% FBS+antibiotics (400× dilution). Medium containing 0.25% DMSO is also prepared for the […]. At the 22 h timepoint, the medium is removed from the cells, and 100 μL of each compound dilution is added. The cells are incubated at 37° C. for 2-3 h.
During the compound pre-incubation period, the growth factors are diluted to the appropriate concentrations. Solutions of DMEM+10% FBS+antibiotics, containing either VEGF or bFGF at the following concentrations: 50, 10, 2, 0.4, 0.08, and 0 ng/mL are prepared. For the compound-treated cells, solutions of VEGF at 550 ng/mL or bFGF at 220 ng/mL for 50 ng/mL or 20 ng/mL final concentrations, respectively, are prepared since 10 μL of each will be added to the cells (110 μL final volume). At the appropriate time after adding the compounds, the growth factors are added. VEGF is added to one set of plates, while bFGF is added to another set of plates. For the growth factor control curves, the media on wells B4-G6 of plates 1 and 2 are replaced with media containing VEGF or bFGF at the varying concentrations (50-0 ng/mL). The cells are incubated at 37° C. for an additional 72 h.
At the completion of the 72 h incubation period, the medium is removed, and the cells are washed twice with PBS. After the second wash with PBS, the plates are tapped gently to remove excess PBS, and the cells are placed at −70° C. for at least 30 min. The cells are thawed and analyzed using the CyQuant fluorescent dye (Molecular Probes C-7026), following the manufacturer's recommendations. The plates are read on a Victor/Wallac 1420 workstation at 485 nm/530 nm (excitation/emission). Raw data are collected and analyzed using a 4-parameter fit equation in XLFit. IC50 values are then determined.

T1 sequence (P08581 25-1390): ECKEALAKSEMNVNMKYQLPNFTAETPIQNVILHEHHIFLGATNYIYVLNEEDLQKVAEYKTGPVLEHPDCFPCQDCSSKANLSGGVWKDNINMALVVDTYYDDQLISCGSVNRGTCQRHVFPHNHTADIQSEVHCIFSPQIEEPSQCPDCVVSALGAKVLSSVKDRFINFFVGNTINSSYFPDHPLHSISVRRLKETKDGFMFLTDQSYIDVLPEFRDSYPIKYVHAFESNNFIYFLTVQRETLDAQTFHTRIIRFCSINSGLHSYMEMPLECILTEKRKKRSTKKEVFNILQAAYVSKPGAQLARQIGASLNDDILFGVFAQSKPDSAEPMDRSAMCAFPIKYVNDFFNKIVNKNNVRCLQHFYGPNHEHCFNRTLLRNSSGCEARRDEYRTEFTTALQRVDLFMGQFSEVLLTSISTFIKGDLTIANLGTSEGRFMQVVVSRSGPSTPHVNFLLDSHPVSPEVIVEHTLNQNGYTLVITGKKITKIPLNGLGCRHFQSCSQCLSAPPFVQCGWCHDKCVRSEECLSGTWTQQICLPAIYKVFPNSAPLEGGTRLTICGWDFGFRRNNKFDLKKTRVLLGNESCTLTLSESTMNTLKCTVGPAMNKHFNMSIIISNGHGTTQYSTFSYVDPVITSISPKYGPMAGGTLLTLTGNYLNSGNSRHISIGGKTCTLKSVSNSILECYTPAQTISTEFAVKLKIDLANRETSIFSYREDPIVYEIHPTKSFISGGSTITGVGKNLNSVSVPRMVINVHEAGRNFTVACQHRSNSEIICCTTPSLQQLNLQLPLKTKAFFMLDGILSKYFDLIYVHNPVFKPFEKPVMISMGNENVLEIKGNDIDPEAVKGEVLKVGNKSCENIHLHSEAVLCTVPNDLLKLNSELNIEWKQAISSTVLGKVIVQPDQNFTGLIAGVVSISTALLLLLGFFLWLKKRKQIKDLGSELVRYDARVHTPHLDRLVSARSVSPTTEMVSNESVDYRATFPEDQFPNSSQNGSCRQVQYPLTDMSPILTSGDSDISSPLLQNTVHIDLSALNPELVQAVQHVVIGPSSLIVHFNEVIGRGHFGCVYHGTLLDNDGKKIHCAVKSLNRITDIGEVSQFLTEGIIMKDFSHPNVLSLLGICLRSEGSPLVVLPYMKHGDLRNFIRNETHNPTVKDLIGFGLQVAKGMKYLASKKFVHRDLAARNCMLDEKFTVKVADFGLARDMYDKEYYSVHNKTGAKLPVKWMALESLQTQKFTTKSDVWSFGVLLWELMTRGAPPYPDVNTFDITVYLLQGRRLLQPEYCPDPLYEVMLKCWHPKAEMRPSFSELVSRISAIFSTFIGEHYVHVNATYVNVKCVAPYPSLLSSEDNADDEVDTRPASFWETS

SMILES	IC50 (c-Met in PC3 cells) [nM]	IC50 [1] [nM]
COc1cc2nccc(Oc3ccc4nc(NC(=O)c5ccsc5)sc4c3)c2cc1OC [Example 46, Thiophene-3-carboxylic acid [6-(6,7-dimethoxy-quinolin-4-yloxy)-benzothiazol-2-yl]-amide]	< 1000	–
Cc1cc(Oc2ccc3nc(NC(=O)Cc4ccccc4)sc3c2)ccn1 [Example 82, N-[6-(2-Methyl-pyridin-4-yloxy)-benzothiazol-2-yl]-2-phenyl-acetamide]	< 1000	–
COc1cc2nccc(Oc3ccc4oc(Nc5ccc(Cl)cc5)nc4c3)c2cc1OC [Example 96, 5-((6,7-bis(methoxy)-4-quinolinyl)oxy)-N-(4-chlorophenyl)-1,3-benzoxazol-2-amine]	< 1000	–
COc1cc2c(Oc3ccc4nc(NC(=O)c5ccccc5)sc4c3)ccnc2cc1OCCCN(C)C [Example 102, N-(6-((7-((3-(dimethylamino)propyl)oxy)-6-(methoxy)-4-quinolinyl)oxy)-1,3-benzothiazol-2-yl)benzamide]	< 1000	–
COc1cc2c(Oc3ccc4nc(NC(=O)c5ccsc5)sc4c3)ccnc2cc1OCCCN1CCOCC1 [Example 104, N-(6-((6-(methoxy)-7-((3-(4-morpholinyl)propyl)oxy)-4-quinolinyl)oxy)-1,3-benzothiazol-2-yl)-1-3-thiohenecarboxamide]	< 1000	–
COc1ccc(C(=O)Nc2nn(C)c3cc(Oc4ccnc5cc(OC)c(OC)cc45)ccc23)cc1 [Example 132, N-(6-((6,7-bis(methyloxy)-4-quinolinyl)oxy)-1-methyl-1H-indazol-3-yl)-4-(methyloxy)benzamide]	–	< 500
COc1cc2nccc(Oc3ccc4c(NC(=O)c5ccc(Cl)cc5)nn(C)c4c3)c2cc1OC [Example 134, N-(6-((6,7-bis(methoxy)-4-quinolinyl)oxy)-1-methyl-1H-indazol-3-yl)-4-chlorobenzamide]	–	< 500
COc1cc2nccc(Oc3ccc4c(NC(=O)c5ccc(C(F)(F)F)cc5)nn(C)c4c3)c2cc1OC [Example 135, N-(6-((6,7-bis(methoxy)-4-quinolinyl)oxy)-1-methyl-1H-indazol-3-yl)-4-(trifluoromethyl)benzamide]	–	< 500
COc1cc2nccc(Oc3ccc4c(NC(=O)c5ccc(F)c(Cl)c5)nn(C)c4c3)c2cc1OC [Example 137, N-(6-((6,7-bis(methoxy)-4-quinolinyl)oxy)-1-methyl-1H-indazol-3-yl)-3-chloro-4-fluorobenzamide]	–	< 500
COc1cc2nccc(Oc3ccc4c(NC(=O)c5cc(C(F)(F)F)cc(C(F)(F)F)c5)nn(C)c4c3)c2cc1OC [Example 138, N-(6-((6,7-bis(methoxy)-4-quinolinyl)oxy)-1-methyl-1H-indazol-3-yl)-3,5-bis(trifluoromethyl)benzamide]	–	< 500
COc1cc2nccc(Oc3ccc4c(NC(=O)c5cccc(C)c5)nn(C)c4c3)c2cc1OC [Example 139, N-(6-((6,7-bis(methoxy)-4-quinolinyl)oxy)-1-methyl-1H-indazol-3-yl)-3-methylbenzamide]	–	< 500
COc1cc2nccc(Oc3ccc4c(NC(=O)c5cc(Cl)ccn5)nn(C)c4c3)c2cc1OC [Example 140, N-(6-((6,7-bis(methoxy)-4-quinolinyl)oxy)-1-methyl-1H-indazol-3-yl)-4-chloro-2-pyridinecarboxamide]	–	< 500
COc1cc2nccc(Oc3ccc4c(NC(=O)Nc5ccc(C)cc5)nn(C)c4c3)c2cc1OC [Example 142, N-(6-((6,7-bis(methoxy)quinolinyl)oxy)-1-methyl-1H-indazol-3-yl)-N′-(4-methylphenyl)urea]	–	< 500
COc1cc2nccc(Oc3ccc4c(NC(=O)Nc5ccccc5)nn(C)c4c3)c2cc1OC [Example 144, N-(6-((6,7-bis(methoxy)-4-quinolinyl)oxy)-1-methyl-1H-indazol-3-yl)-N′-phenylurea]	–	< 500
COc1ccc(NC(=O)Nc2nn(C)c3cc(Oc4ccnc5cc(OC)c(OC)cc45)ccc23)cc1 [Example 145, N-(6-((6,7-bis(methoxy)-4-quinolinyl)oxy)-1-methyl-1H-indazol-3-yl)-N′-(4-(methyloxy)phenyl)urea]	–	< 500
